Legend:
veines saphènes de lapin = test: contraction of isolated rabbit saphenous veins produced by KCl (40 mM); settings: for EC50: potentiation of KCl (40 mM) contractions of rabbit saphenous veins, read-out: DE50 (the source's name)
Text: L'effet contractile est mesuré in vitro : • par la force de contraction développée par des anneaux vasculaires quiescents ou stimulés (soit électriquement soit par des agents physiologiques) et maintenus dans des conditions isométriques, • par la pression développée par des réseaux vasculaires perfusés à débit constant.
Les composés de formule (1) et leurs sels éventuels augmentent la contraction des veines saphènes animales produite par la noradrénaline et la dépolarisation (solution hyperpotassique) sans affecter, dans la majorité des cas, les réponses contractiles artérielles. A titre illustratif, les composés des exemples 3, 5, 8, 11, 13, 15, 31 (10 nM à […]) augmentent de plus de 40 % (DE50 ± 0,3 microM) les contractions des veines saphènes de lapin produites par le KCl (40 mM).

[1] = free radical scavenging with DPPH as stable free radical; settings: DPPH model
Text: L'effet "piégeur de radicaux libres" global est étudié in vitro par un modèle utilisant le 1,1-diphényl-2-picrylhydrazyl (DPPH) comme radical libre stable, méthode dérivée de celle décrite par Lamaison et col., Plantes Médic. et Phytothérapie, XXII, 1988, 231-234.

[2] = tested on: hyperperméabilité vasculaire induite par le zymosan; test: vascular hyperpermeability induced by zymosan, in vivo; settings: 2 and 4 hours after per os 1 à 20 mg/kg
Text: La perméabilité vasculaire est étudiée in vivo et in vitro par la mesure de l'extravasation d'albumine ou de colorant liant l'albumine (Bleu Evans). In vivo, l'hyperperméabilité est induite par l'injection d'une solution d'histamine, de bradykinine ou de zymosan. Les modèles in vitro permettent de réaliser des hyperpressions (sur un territoire vasculaire isolé) et/ou des réactions vasculaires inflammatoires.
A titre illustratif, les composés des exemples 28, 27, 25 diminuent l'hyperperméabilité vasculaire induite par le zymosan lorsque celle-ci est mesurée 2 et 4 heures après administration per os de 1 à 20 mg/kg.

rat = test: carrageenan-induced pleurisy in the rat; type: in vivo; settings: twice i.p. 5 mg/kg, 6 hours after carrageenan injection
Protocol: L'activité antiinflammatoire est démontrée par la mesure de l'inhibition de l'oedème et de la migration leucocytaire après induction d'une pleurésie chez le rat par injection de carragénine dans la cavité pleurale (Almeida et col., J. Pharmacol. Exp. Therap., 1980, 214 : 74).
A titre illustratif, les composés des exemples 21, 23 administrés deux fois en i.p. à la dose de 5 mg/kg inhibent l'oedème et la migration leucocytaire dans la cavité pleurale, 6 heures après injection de carragénine dans le modèle de la pleurésie chez le rat.

SMILES	augmentation des contractions des veines saphènes de lapin produites par le KCl (40 mM) (veines saphènes de lapin)	EC50 (veines saphènes de lapin)	also measured
O=C(NN=c1c(=O)c2ccccc2c1=O)Nc1cccc([N+](=O)[O-])c1 [exemple 8, 2.3-Dihydro-1.3-dioxo-2-[(3-nitrophenyl)aminocarbonylhydrazono]-1H-indène]	> 40%	~300 nM	–
Nc1ccc(NC(=O)NN=c2c(=O)c3ccccc3c2=O)cc1 [exemple 5, 2-[(4-Aminophenyl)aminocarbonylhydrazono]-2.3-dihydro-1.3-dioxo-1H-indène]	> 40%	~300 nM	–
O=C(NN=c1c(=O)c2ccccc2c1=O)Nc1cccnc1 [exemple 13, 2.3-Dihydro-1.3-dioxo-2-[(3-pyridyl)aminocarbonylhydrazono]-1H-indène]	> 40%	~300 nM	–
O=C(NN=c1c(=O)c2ccccc2c1=O)Nc1ccc([N+](=O)[O-])cc1 [exemple 9, 2.3-Dihydro-1.3-dioxo-2-(4-nitrophenylaminocarbonylhydrazono)-1H-indène]	–	–	effet antiradicalaire [1]: présentent un effet antiradicalaire
O=C(NN=c1c(=O)c2cccc(F)c2c1=O)Nc1ccncc1 [exemple 25, 2.3-Dihydro-1.3-dioxo-4-fluoro-2-[(4-pyridyl)aminocarbonylhydrazono]-1H-indène]	–	–	hyperperméabilité vasculaire induite par le zymosan [2]: diminuent
O=C(NN=c1c(=O)c2cccc(F)c2c1=O)Nc1cccnc1 [exemple 23, 2.3-Dihydro-1.3-dioxo-4-fluoro-2-[(3-pyridyl)aminocarbonylhydrazono]-1H-indène]	–	–	migration leucocytaire dans la cavité pleurale (rat): inhibent; oedème (rat): inhibent
O=C(NN=c1c(=O)c2ccc(F)cc2c1=O)Nc1ccccc1 [exemple 27, 2.3-Dihydro-1.3-dioxo-5-fluoro-2-(phenylaminocarbonylhydrazono)-1H-indène]	–	–	hyperperméabilité vasculaire induite par le zymosan [2]: diminuent
O=C(NN=c1c(=O)c2ccc(F)cc2c1=O)Nc1ccc(F)cc1 [exemple 28]	–	–	hyperperméabilité vasculaire induite par le zymosan [2]: diminuent
Nc1cccc(NC(=O)NN=c2c(=O)c3ccccc3c2=O)c1 [exemple 3, 2-[(3-Aminophenyl)aminocarbonylhydrazono]-2.3-dihydro1.3-dioxo-1H-indène]	> 40%	~300 nM	–
O=C(NN=c1c(=O)c2ccccc2c1=O)Nc1ccccn1 [exemple 11, 2.3-Dihydro-1.3-dioxo-2-[(2-pyridyl)aminocarbonylhydrazono]-1H-indène, chlorhydrate]	> 40%	~300 nM	–
O=C(NN=c1c(=O)c2ccc(F)cc2c1=O)Nc1ccncc1 [exemple 31, 2.3-Dihydro-1.3-dioxo-5-fluoro-2-[(4-pyridyl)aminocarbonylhydrazono]-1H-indène]	> 40%	~300 nM	–
O=C(NN=c1c(=O)c2cccc(F)c2c1=O)Nc1ccccc1 [exemple 21, 2.3-Dihydro-1.3-dioxo-4-fluoro-2-(phenylaminocarbonylhydrazono)-1H-indène]	–	–	migration leucocytaire dans la cavité pleurale (rat): inhibent; oedème (rat): inhibent
O=C(NN=c1c(=O)c2ccccc2c1=O)Nc1ccccc1[N+](=O)[O-] [exemple 7, 2.3-Dihydro-1.3-dioxo-2-[(2-nitrophenyl)aminocarbonylhydrazono]-1H-indène]	–	–	effet antiradicalaire [1]: présentent un effet antiradicalaire

— EP0646574A1, “Ketonic indane derivatives, their preparation and therapeutic application thereof” (LABORATOIRE INNOTHERA Société Anonyme, priority 1993, dated 1995)
